According to BindingDB's records for doi:10.1111/cbdd.12463 (University of California San Diego, 2015):

What was measured:
[1] = target: T1, Decaprenyl diphosphate synthase (Mycobacterium tuberculosis (strain CDC 1551 / Oshkosh), UniProt P9WFF6); assay: DPPS Inhibition (cis FPP based) Assay; details: pH 7.5
T1 sequence (P9WFF6 whole entry): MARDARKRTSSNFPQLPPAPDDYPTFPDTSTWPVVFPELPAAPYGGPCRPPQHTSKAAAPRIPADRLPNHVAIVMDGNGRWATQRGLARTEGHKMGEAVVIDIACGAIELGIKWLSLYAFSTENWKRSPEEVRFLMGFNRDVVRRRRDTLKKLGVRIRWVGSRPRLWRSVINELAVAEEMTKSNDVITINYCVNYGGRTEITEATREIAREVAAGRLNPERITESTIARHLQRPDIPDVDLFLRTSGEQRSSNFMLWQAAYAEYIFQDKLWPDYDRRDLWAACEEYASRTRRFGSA
Description: We screened an in-house library of 19 compounds using cis-FPP as substrate.

[2] = target: T1, Decaprenyl diphosphate synthase; assay: DPPS Inhibition (GPP based) Assay; details: pH 7.5
Description: We screened an in-house library of 43 compounds using GPP as substrate.

[3] = target: T1, Decaprenyl diphosphate synthase; assay: DPPS Inhibition (trans FPP based) Assay; details: pH 7.5
Description: We screened an in-house library of 53 compounds using trans-FPP as substrate.

[4] = target: T2, Tuberculosinyl adenosine transferase (Mycobacterium tuberculosis (strain CDC 1551 / Oshkosh), UniProt P9WJ60); assay: Rv3378c Inhibition Assay
T2 sequence (P9WJ60 whole entry): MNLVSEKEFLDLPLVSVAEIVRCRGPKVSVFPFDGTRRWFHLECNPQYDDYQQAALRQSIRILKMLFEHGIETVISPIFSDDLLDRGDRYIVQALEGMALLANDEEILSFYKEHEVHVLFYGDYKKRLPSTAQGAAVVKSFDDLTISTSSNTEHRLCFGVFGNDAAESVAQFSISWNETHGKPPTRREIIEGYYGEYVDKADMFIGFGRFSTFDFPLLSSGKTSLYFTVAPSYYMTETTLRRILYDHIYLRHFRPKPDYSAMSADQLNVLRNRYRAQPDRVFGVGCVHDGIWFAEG
Method: For inhibition assay of Rv3378c, using tuberculosinyl diphosphate and adenosine as substrates, a mixture of 100 µM TPP, 100 µM adenosine,75 µg/mL Rv3378c, and inhibitors in the assay buffer (25 mM Tris-HCl, 1 mM MgCl2, 0.01% Triton-X-100) was incubated for 2 h at 37 °C.

**Q.** `CCCCCCCCOc1cccc(COc2ccc(S(=O)(=O)N3CCOCC3)cc2C(=O)O)c1` [BPH-1158] was tested. Which IC50 [1] did it give?
**A.** 83 µM

**Q.** And the IC50 [2]?
**A.** 1.4 µM

**Q.** Which results are given for `CCCCCCCCOc1cccc(C(=O)Nc2cccc(C(=O)O)c2C(O)O)c1` [BPH-1461]?
**A.** IC50 [1]: 55 µM; IC50 [2]: 0.164 µM

**Q.** With `O=P(O)(O)C(O)(Cc1cccc(-c2cccc3c2oc2ccccc23)c1)P(=O)(O)O` [[1-hydroxy-2-(3-{8-oxatricyclo[7.4.0.0^{2,7}]trideca-1(13),2,4,6,9,11-hexaen-6-yl}phenyl)-1-phosphonoethyl]phosphonic acid] as the compound, how does the IC50 [3] read?
**A.** 19 µM

**Q.** And the IC50 [4]?
**A.** 0.21 µM

**Q.** Which results are given for `CCCCCCCCOc1cccc(C(=O)Nc2cc(OC)c(OC)cc2C(=O)O)c1` [BPH-1294]?
**A.** IC50 [1]: 62 µM; IC50 [2]: 0.205 µM

**Q.** Which IC50 [1] does the source give for `CCCCCCCCOc1ccc(F)c(C(=O)Nc2ccc(F)cc2C(=O)O)c1` [BPH-1485] here?
**A.** 20 µM

**Q.** And the IC50 [2]?
**A.** 0.308 µM

**Q.** `C=CCC(/C=C/C(=O)Nc1ccc(F)cc1C(=O)O)OCCCCCCCC` (configuration not stated) [BPH-1463] was tested. Which IC50 [1] did it give?
**A.** 90 µM

**Q.** What about the IC50 [2] of the same compound?
**A.** 0.031 µM

**Q.** With `CCCCCCCCOc1cccc(C(=O)Nc2ccc([N+](=O)[O-])cc2C(=O)O)c1` [BPH-1247] as the compound, how does the IC50 [1] read?
**A.** 49 µM

**Q.** And the IC50 [2]?
**A.** 0.119 µM

**Q.** `CCCCCCCCOc1cccc(C(=O)Nc2ccc(Br)cc2C(=O)O)c1` [BPH-1264] was tested. Which IC50 [1] did it give?
**A.** 11 µM

**Q.** And the IC50 [2]?
**A.** 0.068 µM

**Q.** Which IC50 [1] does the source give for `CCCCCCCCOc1cc(O)cc(COc2ccc(Br)cc2C(=O)O)c1` [BPH-1311] here?
**A.** 56 µM

**Q.** And the IC50 [2]?
**A.** 2.9 µM

**Q.** With `O=C(Nc1cccc(C2=NCCN2)c1)c1ccc(-c2ccc(C(=O)Nc3cccc(C4=NCCN4)c3)cc2)cc1` [50460, 14] as the compound, how does the IC50 [4] read?
**A.** 96 µM

**Q.** With `C(=C\c1cc2ccc(C3=NCCN3)cc2[nH]1)/c1cc2ccc(C3=NCCN3)cc2[nH]1` [BPH-1417] as the compound, how does the IC50 [1] read?
**A.** 20 µM

**Q.** What about the IC50 [2] of the same compound?
**A.** 0.49 µM

**Q.** And the IC50 [4]?
**A.** 0.66 µM
